# Experiments:
# hBRD4 = target: T1, hBRD4 (Homo sapiens, UniProt O60885); assay: NanoBRET assay, BRD4 full length; format: cell-based; settings: NanoBRET in HEK293 cells, read after overnight incubation; mean ± Standard Deviation
# T1 construct: NanLuc-BRD4 Full Length (Promega, 0.0002 μg); host or cells: HEK293
# Protocol: HEK293 cells are seeded at 10×10^6 cells/16 mL in DMEM+10% FBS in a T-75 flask and left to attach for 4-6 hours. Transfection reagents are diluted in Opti-MEM media (no phenol red, no FBS) and 8% Fugene HD containing expression plasmids at a final concentration of the following: 1: Histone H3.3 HaloTag DNA (Promega, 0.02 μg)+NanoLuc-CREBBP-BD (Promega, 0.0002 μg); 2: Histone H3.3 HaloTag DNA (Promega, 0.02 μg)+NanoLuc-EP300-BD (Promega, 0.0002 μg); 3: Histone H4 HaloTag DNA (0.02 μg)+NanLuc-BRD4 Full Length (Promega, 0.0002 μg). The DNA/Fugene mixtures are left at RT for 10 minutes. Transfection mix (800 μL) is added per flask and immediately swirled to cover the cells. The plates are returned to the incubator for overnight transfection. The next day, HaloTag NanoBRET 618 ligand (20 μL/vial of 0.1 mM) is thawed at RT. […]
# Compound is serially diluted and added to 96-well plates (2 10 mM, 3-fold dilutions, 100% DMSO). […] CREBBP/EP300 plates are read after 4 hours incubation and the BRD4 plates are read after overnight incubation. To develop plates for reading, allow all reagents to reach RT before use. […] The plate is shaken for 1 minute to mix and within 10 minutes, read on Envision plate reader with the following settings: Mirror: Luminescence; Emission filter: E600LP; 2nd emission filter: D460/50; Measurement height (mm): 6.5; Measurement time (s): 0.2 second.
# OCI-AML2 = assay: Cell growth inhibition assay, OCI-AML2; format: cell-based; settings: Homo sapiens, 168 h; OCI-AML2, 7 days
# Protocol: (§1) Tumor cell lines are plated onto 96-well, black wall poly-D-lysine plates (Corning #354640), and incubated at 37° C., 5% CO2 for 18-24 hours. Compound was added at 1:3 dilutions in DMSO and cells were incubated at 37° C., 5% CO2 for 7 days. For adherent cell lines, cells were fixed and stained with propidium iodide and scanned on Acumen (channel 3 setting). For suspension cell lines, cell growth was monitored using Cell Titer-Glo reagent.
# MOLM-16 = assay: Cell growth inhibition assay, MOLM-16; format: cell-based; settings: MOLM16, 168 h; MOLM-16, 7 days
# Protocol: as §1
# Kasumi (AML1-ETO) = assay: Cell growth inhibition assay, Kasumi (AML1-ETO); format: cell-based; settings: 168 h, 7 days
# Protocol: as §1
# EOL-1 = assay: Cell growth inhibition assay, EOL-1; format: cell-based; settings: Homo sapiens, EOL1, 168 h; EOL-1, 7 days
# Protocol: as §1
# KG-1 = assay: Cell growth inhibition assay, KG-1; format: cell-based; settings: Homo sapiens, 168 h; KG-1, 7 days
# Protocol: as §1
# EP300 = target: T2, EP300 (Homo sapiens, UniProt Q09472); assay: BromoKdELECT platform assay, EP300; format: binding; design: purchased DiscoverX (BromoKdELECT service); settings: 11 points dose-response, mean from a duplicate experiment
# T2 sequence (Q09472 1049-1156 limits assumed): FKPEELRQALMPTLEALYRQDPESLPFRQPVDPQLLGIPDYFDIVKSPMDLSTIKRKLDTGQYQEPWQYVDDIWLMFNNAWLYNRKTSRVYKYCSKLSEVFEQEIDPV
# Source text: The purpose of this assay is to evaluate the in vitro target engagement and selectivity (https://www.discoverx.com/services/drug-discovery-development-services/epigenetic-profiling/bromoscan-epigenetic-profiling/bromokdelect). Assay measurement is based on the amount of bromodomain captured in test and control samples by using quantitative PCR technology that detects the DNA label associated to bromodomain. Compounds that bind the bromodomain active site prevents its binding to the immobilized ligand and will reduce the amount of bromodomain captured on the solid support. […] Thus, compound activity is monitored by measuring the amount of bromodomain captured in test versus control samples by using qPCR. Binding affinity for test compound-bromodomain interactions are calculated by measuring the amount of bromodomain captured on the solid support as a function of the test compound concentration.
# Binding affinity (Kd) of the compounds of Examples 1 and 2 towards CREBBP, EP300 and BRD4 (Bromodomain 1 (BD1) and Bromodomain 2 (BD2)) are determined in an 11 points dose-response study (See Table 5). Data is represented as a mean from a duplicate experiment.
# OCI-AML3 = assay: Cell growth inhibition assay, OCI-AML3; format: cell-based; settings: Homo sapiens, OCI-AML-3, 168 h; OCI-AML3, 7 days
# Protocol: as §1
# SKNO-1 (AML1-ETO) = assay: Cell growth inhibition assay, SKNO-1 (AML1-ETO); format: cell-based; settings: 168 h, 7 days
# Protocol: as §1
# NCI-H1048 = assay: Cell growth inhibition assay, NCI-H1048; format: cell-based; settings: Homo sapiens, 168 h; NCI-H1048, 7 days
# Protocol: as §1
# NCI-H211 = assay: Cell growth inhibition assay, NCI-H211; format: cell-based; settings: Homo sapiens, 168 h; NCI-H211, 7 days
# Protocol: as §1
compound,measurement,setting,value
"CCNC(=O)c1ccc(-c2cc3cccc(-c4nn(C)c5c4CN(C)C(=O)CC5)c3cn2)cn1 [Example 2, 5-[8-(1,5-Dimethyl-6-oxo-7,8-dihydro-4H-pyrazolo[4,3-c]azepin-3-yl)-3-isoquinolyl]-N-ethyl-pyridine-2-carboxamide]",IC50,hBRD4,11800 nM
same,IC50,OCI-AML2,207 nM
same,IC50,MOLM-16,129 nM
same,IC50,Kasumi (AML1-ETO),8 nM
same,IC50,EOL-1,1 nM
same,IC50,KG-1,83 nM
same,Kd,EP300,0.095 nM
same,IC50,OCI-AML3,226 nM
same,IC50,SKNO-1 (AML1-ETO),18 nM
same,IC50,NCI-H1048,18 nM
same,IC50,NCI-H211,65 nM
